# Read-outs that look alike come from different tables or passages of the source.
# What was measured:
# Rhizopus oryzae = experiment: MIC (Table 5); settings: Rhizopus arrhizus
# C. krusei = experiment: MIC against Candida species (Table 4); settings: Pichia kudriavzevii; for MIC: read-out: MIC 100%
# C. glabrata = experiment: MIC against Candida species (Table 4); settings: for MIC50 / MIC: Nakaseomyces glabratus; for MIC: read-out: MIC 100%
# Cryptococcus neoformans = experiment: MIC against Cryptococcus neoformans (Table 4); settings: for MIC50 / MIC: Cryptococcus neoformans; for MIC: read-out: MIC 100%
smiles,measurement,setting,value
"NCC(=O)Nc1ccc(-n2nc(C(F)(F)F)cc2-c2ccc3c(ccc4ccccc43)c2)cc1 [AR-12, 2-amino-N-(4-(5-(phenanthren-2-yl)-3-(trifluoromethyl)-1H-pyrazol-1-yl)phenyl)acetamide]",MIC50,"Rhizopus oryzae; isolate R-6, 48/72 hrs",4 µg/mL
same,MIC,"Rhizopus oryzae; read-out: MIC 100%, isolate R-1, 48/72 hrs",4 µg/mL
same,MIC,"Rhizopus oryzae; read-out: MIC 100%, isolate R-2, 48/72 hrs",8 µg/mL
same,MIC,"Rhizopus oryzae; read-out: MIC 100%, isolate R-3, 48/72 hrs",4 µg/mL
same,MIC,"Rhizopus oryzae; read-out: MIC 100%, isolate R-4, 48/72 hrs",4 µg/mL
same,MIC,"Rhizopus oryzae; read-out: MIC 100%, isolate R-5, 48/72 hrs",4 µg/mL
same,MIC,"Rhizopus oryzae; read-out: MIC 100%, isolate R-6, 48/72 hrs",4 µg/mL
same,MIC50,C. krusei; 24 h,2 µg/mL
same,MIC,C. krusei; 24 h,4 µg/mL
same,MIC50,C. krusei; 48 h,4 µg/mL
same,MIC,C. krusei; 48 h,4 µg/mL
same,MIC50,"C. glabrata; 24 h, isolate CG-1, 24 hrs",4 µg/mL
same,MIC50,"C. glabrata; 24 h, isolate CG-2, 24 hrs",4 µg/mL
same,MIC50,"C. glabrata; 24 h, isolate CG-3, 24 hrs",4 µg/mL
same,MIC50,"C. glabrata; 24 h, isolate CG-4, 24 hrs",4 µg/mL
same,MIC50,"C. glabrata; 24 h, isolate CG-5, 24 hrs",4 µg/mL
same,MIC50,"C. glabrata; 24 h, isolate CG-6, 24 hrs",4 µg/mL
same,MIC50,"C. glabrata; 24 h, isolate CG-7, 24 hrs",2 µg/mL
same,MIC50,"C. glabrata; 24 h, isolate CG-8, 24 hrs",4 µg/mL
same,MIC50,"C. glabrata; 24 h, isolate CG-9, 24 hrs",2 µg/mL
same,MIC50,"C. glabrata; 24 h, isolate CG-10, 24 hrs",2 µg/mL
same,MIC,C. glabrata; 24 h,4 µg/mL
same,MIC50,"C. glabrata; 48 h, isolate CG-1, 48 hrs",4 µg/mL
same,MIC50,"C. glabrata; 48 h, isolate CG-2, 48 hrs",4 µg/mL
same,MIC50,"C. glabrata; 48 h, isolate CG-3, 48 hrs",4 µg/mL
same,MIC50,"C. glabrata; 48 h, isolate CG-4, 48 hrs",4 µg/mL
same,MIC50,"C. glabrata; 48 h, isolate CG-5, 48 hrs",4 µg/mL
same,MIC50,"C. glabrata; 48 h, isolate CG-6, 48 hrs",4 µg/mL
same,MIC50,"C. glabrata; 48 h, isolate CG-7, 48 hrs",4 µg/mL
same,MIC50,"C. glabrata; 48 h, isolate CG-8, 48 hrs",4 µg/mL
same,MIC50,"C. glabrata; 48 h, isolate CG-9, 48 hrs",4 µg/mL
same,MIC50,"C. glabrata; 48 h, isolate CG-10, 48 hrs",4 µg/mL
same,MIC,C. glabrata; 48 h,4 µg/mL
same,MIC 100%,"C. glabrata; isolate CG-1, 24 hrs",4 µg/mL
same,MIC 100%,"C. glabrata; isolate CG-1, 48 hrs",4 µg/mL
same,MIC 100%,"C. glabrata; isolate CG-2, 24 hrs",4 µg/mL
same,MIC 100%,"C. glabrata; isolate CG-2, 48 hrs",4 µg/mL
same,MIC 100%,"C. glabrata; isolate CG-4, 24 hrs",4 µg/mL
same,MIC 100%,"C. glabrata; isolate CG-4, 48 hrs",4 µg/mL
same,MIC 100%,"C. glabrata; isolate CG-5, 24 hrs",4 µg/mL
same,MIC 100%,"C. glabrata; isolate CG-5, 48 hrs",4 µg/mL
same,MIC 100%,"C. glabrata; isolate CG-6, 24 hrs",4 µg/mL
same,MIC 100%,"C. glabrata; isolate CG-6, 48 hrs",4 µg/mL
same,MIC 100%,"C. glabrata; isolate CG-7, 24 hrs",4 µg/mL
same,MIC 100%,"C. glabrata; isolate CG-7, 48 hrs",4 µg/mL
same,MIC 100%,"C. glabrata; isolate CG-8, 24 hrs",4 µg/mL
same,MIC 100%,"C. glabrata; isolate CG-8, 48 hrs",4 µg/mL
same,MIC 100%,"C. glabrata; isolate CG-9, 24 hrs",4 µg/mL
same,MIC 100%,"C. glabrata; isolate CG-9, 48 hrs",4 µg/mL
same,MIC 100%,"C. glabrata; isolate CG-10, 24 hrs",4 µg/mL
same,MIC 100%,"C. glabrata; isolate CG-10, 48 hrs",4 µg/mL
same,MIC50,"Cryptococcus neoformans; 48 h, isolate CN-1, 48 hrs",2 µg/mL
same,MIC50,"Cryptococcus neoformans; 48 h, isolate CN-2, 48 hrs",4 µg/mL
same,MIC50,"Cryptococcus neoformans; 48 h, isolate CN-3, 48 hrs",4 µg/mL
same,MIC,Cryptococcus neoformans; 48 h,4 µg/mL
same,MIC50,"Cryptococcus neoformans; 72 h, isolate CN-1, 72 hrs",4 µg/mL
same,MIC50,"Cryptococcus neoformans; 72 h, isolate CN-2, 72 hrs",4 µg/mL
same,MIC50,"Cryptococcus neoformans; 72 h, isolate CN-3, 72 hrs",4 µg/mL
same,MIC,Cryptococcus neoformans; 72 h,4 µg/mL
same,MIC 100%,"Cryptococcus neoformans; isolate CN-2, 48 hrs",4 µg/mL
same,MIC 100%,"Cryptococcus neoformans; isolate CN-2, 72 hrs",4 µg/mL
same,MIC 100%,"Cryptococcus neoformans; isolate CN-3, 48 hrs",4 µg/mL
same,MIC 100%,"Cryptococcus neoformans; isolate CN-3, 72 hrs",4 µg/mL
